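Grown in 96-well plates, cells were treated for 48 hours with each compound at five concentrations. Insufficient inhibition: endpoint recorded as highest concentration tested. The concentration for 50% growth inhibition is given as GI50.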 The source made the active and inactive calls. Cut-off read from the data, not from the text of the source: active = GI50 up to about 1.1 µM and inactive = higher.
Assays:
Assay in all cases: inhibition of tumour cell growth, NCI panel, 48 h
A498 = test system: A498
HL-60 = test system: HL-60
HOP-62 = test system: HOP-62
HT-29 = test system: HT-29
IGROV-1 = test system: IGROV-1
K562 = test system: K562
MDA-N = test system: MDA-N
Malme-3M = test system: Malme-3M
NCI-H226 = test system: NCI-H226
NCI-H522 = test system: NCI-H522
NCI/ADR-RES = test system: NCI/ADR-RES
OVCAR-8 = test system: OVCAR-8
SF-539 = test system: SF-539
SK-MEL-2 = test system: SK-MEL-2
SK-MEL-5 = test system: SK-MEL-5
SK-OV-3 = test system: SK-OV-3
SN12C = test system: SN12C
U-251 = test system: U-251
UACC-257 = test system: UACC-257
RPMI-8226 = test system: RPMI-8226

Row | SMILES | GI50 (A498) | GI50 (HL-60) | GI50 (HOP-62) | GI50 (HT-29) | GI50 (IGROV-1) | GI50 (K562) | GI50 (MDA-N) | GI50 (Malme-3M) | GI50 (NCI-H226) | GI50 (NCI-H522) | GI50 (NCI/ADR-RES) | GI50 (OVCAR-8) | GI50 (SF-539) | GI50 (SK-MEL-2) | GI50 (SK-MEL-5) | GI50 (SK-OV-3) | GI50 (SN12C) | GI50 (U-251) | GI50 (UACC-257) | GI50 (RPMI-8226)
1 | CSC1=C(C)S/C(=C\c2ccc(/C=C3\SC(C)=C(SC)S3)cc2)S1 | > 100 µM (inactive) | > 100 µM (inactive) | 33.5 µM (inactive) | > 100 µM (inactive) | > 100 µM (inactive) | > 100 µM (inactive) | > 100 µM (inactive) | > 100 µM (inactive) | 92.5 µM (inactive) | > 100 µM (inactive) | > 100 µM (inactive) | > 100 µM (inactive) | 5.33 µM (inactive) | > 100 µM (inactive) | > 100 µM (inactive) | > 100 µM (inactive) | > 100 µM (inactive) | 79.8 µM (inactive) | > 100 µM (inactive) | –
2 | COc1ccc2[nH]c(CCNC(=O)c3cc([N+](=O)[O-])cc([N+](=O)[O-])c3)cc2c1 | > 100 µM (inactive) | > 100 µM (inactive) | 12.3 µM (inactive) | > 100 µM (inactive) | 26.5 µM (inactive) | > 100 µM (inactive) | > 100 µM (inactive) | > 100 µM (inactive) | 71.1 µM (inactive) | – | > 100 µM (inactive) | 44.5 µM (inactive) | 29.8 µM (inactive) | 65.8 µM (inactive) | > 100 µM (inactive) | 41 µM (inactive) | 56 µM (inactive) | 14.7 µM (inactive) | > 100 µM (inactive) | > 100 µM (inactive)
3 | COCCOC(=O)c1c(C)[n+]([O-])c2cc(Cl)c(Cl)cc2[n+]1[O-] | 20.3 µM (inactive) | 6.41 µM (inactive) | 11 µM (inactive) | 18.7 µM (inactive) | 3.85 µM (inactive) | 13.7 µM (inactive) | 23.2 µM (inactive) | 18.5 µM (inactive) | – | 17.1 µM (inactive) | 11 µM (inactive) | 7.06 µM (inactive) | 22.6 µM (inactive) | 25.3 µM (inactive) | 7.6 µM (inactive) | 17.9 µM (inactive) | 20 µM (inactive) | 9.82 µM (inactive) | 20.2 µM (inactive) | 4.69 µM (inactive)
4 | CC(C)(C)C1CCC2c3c([nH]c4ccccc34)C3C(=O)N(c4cc(Cl)ccc4Cl)C(=O)C3C2C1 (centres undefined) | > 100 µM (inactive) | > 10 µM (inactive) | > 100 µM (inactive) | > 100 µM (inactive) | > 100 µM (inactive) | > 100 µM (inactive) | > 100 µM (inactive) | > 100 µM (inactive) | > 100 µM (inactive) | – | > 100 µM (inactive) | 52.6 µM (inactive) | > 100 µM (inactive) | > 100 µM (inactive) | > 100 µM (inactive) | > 100 µM (inactive) | > 100 µM (inactive) | > 10 µM (inactive) | > 100 µM (inactive) | > 100 µM (inactive)
5 | CN(Cc1cnc2nc(N)nc(N)c2n1)c1ccc(C(=O)NC(CCC(=O)O)C(=O)O)c2ccccc12 (centres undefined) | 0.0526 µM (active) | 0.000435 µM (active) | < 0.0185 µM (active) | 0.00168 µM (active) | 0.0137 µM (active) | 0.000301 µM (active) | 0.000834 µM (active) | 0.0356 µM (active) | < 0.1 µM (active) | – | 0.00395 µM (active) | 0.00378 µM (active) | 0.00577 µM (active) | < 0.1 µM (active) | 0.0107 µM (active) | 0.0456 µM (active) | 0.00697 µM (active) | 0.0114 µM (active) | 0.0425 µM (active) | 0.00764 µM (active)
6 | O=C(NC12CC3CC(CC(C3)C1)C2)n1cnc2cncnc21 | 65.9 µM (inactive) | 28.7 µM (inactive) | 18.2 µM (inactive) | 28.4 µM (inactive) | 26.6 µM (inactive) | 35.1 µM (inactive) | 33.5 µM (inactive) | 26 µM (inactive) | – | 16.1 µM (inactive) | 28.6 µM (inactive) | 30.1 µM (inactive) | 25.1 µM (inactive) | 18.2 µM (inactive) | 16.1 µM (inactive) | 17.8 µM (inactive) | 36 µM (inactive) | 35.3 µM (inactive) | 56.5 µM (inactive) | 22.5 µM (inactive)
